# Measured values published in publication PMC7217877, “N-AS-triggered SPMs are direct regulators of microglia in a model of Alzheimer’s disease” (Nature Communications, 2020).
# Values joined by “and” are separate entries in the source; they are usually repeats but may differ in a detail not shown here. Equal entries are not always repeated.
# Key:
# astrocyte = experiment: N-AS generation in primary cultured cells (LC-MS/MS); assay type: cell-based, C57BL/6 mice; design: dose or concentration left out as unconfirmed; conditions: Ab, replicates
# Method: Reactions were quenched by adding equal volume of cold methanol. A 100 μl aliquot of the reaction mixture was mixed with 30 μl of distilled water containing 5 ng ml^−1 of furosemide (internal standard) for 1 min and vigorously mixed with […] of ethyl acetate for 20 min. After centrifugation at 16,000×g for 10 min, the mixtures were kept for 2 h for freezing aqueous phase. The upper ethyl acetate layer was transferred to a clean tube and evaporated to dryness under a gentle stream of nitrogen. Then, the dried extract was reconstituted in 100 µl of mobile phase and 10 µl aliquot of the solution was injected into an Agilent 6470 Triple Quad LC–MS/MS system (Agilent, Wilmington, DE) coupled with an Agilent 1260 HPLC system. […] Quantification was carried out using multiple reaction monitoring (MRM) at m/z 340.3→263.3 for N-AS and m/z 328.9→284.8 for furosemide (internal standard) in negative ionization mode and collision energy of 20 eV. […]
# To confirm the generation and roles of N-AS in neurons, cells from E18 C57BL/6 mice were prepared as previously described. […] Aβ 1–42 (10 μM, 24 h, Invitrogen, 03112) was exposed to neurons and the cells were analyzed for the generation and roles of N-AS. […]
# APP/PS1 mice = experiment: microglial recruitment to Aβ plaques (Iba1/ThioS colocalization, Fig 5a); assay type: in vivo, mouse; conditions: APP/PS1 + N-AS; cortex; individual values
# Method: Thioflavin S (Sigma-Aldrich) staining was carried out according to previously described procedures. We used 6E10 (mouse, 1:100, Signet, SIG39300), anti-20G10 (mouse, 1:1000, provided by D. R. Howlett, GlaxoSmithKline, Harlow, Essex, UK) for Aβ42, anti-G30 (rabbit, 1:1000, provided by D. R. Howlett) for Aβ40, SMA (mouse, 1:400, Sigma-Aldrich, A2547), AT8 (mouse, 1:500, Thermo Fisher Scientific, MN1020), Caspase-3 (mouse, 1:200, Novus Biologicals, NB100-56708), ac-S565 (rabbit, 1:100), COX2 (mouse, 1:250, Thermo Fisher Scientific, 35-8200), Iba1 (rabbit, 1:500, Wako, 019-19941 and goat, Abcam, ab5076), NeuN (mouse, 1:500, Millipore, MAB177), GFAP (rabbit, 1:500, Dako, N1506 and chicken, 1:500, Abcam, ab4674), and Lamp1 (mouse, 1:200, Abcam, ab24170). The sections were analyzed with a laser-scanning confocal microscope (FV3000; Olympus) or with a BX51 microscope (Olympus). MetaMorph software (Molecular Devices) was used to quantification. Three-dimensional reconstruction of microglia was recorded and analyzed using IMARIS software (Bitplane)[11]. For the analysis of age-dependent microglial COX2^+ CX3CR1^+ cells in WT and APP/PS1 mice, COX2 (rabbit, 1:100, Abcam, ab15191) and CX3CR1 (mouse, 1:100, BioLegend, 149008) antibody were used and the images were acquired on Alexa 488 and APC Channel with performed using Operetta CLS and Analysis Software 4.5 (Perkin-Elmer). […]
Compound,N-AS quantification (Fig 3a) (astrocyte),Aβ containing /Iba1-positive cells per plaque (APP/PS1 mice),Aβ-positive Microglia/plaque (APP/PS1 mice)
"Ab: Aβ 1–42 (Invitrogen, 03112) used to induce an AD environment in cells",0.05349 and 0.0246 and 0.05789 and 0.03905 and 0.04125 and 0.04847,,
"CCCCCCCCCCCCC/C=C/[C@@H](O)[C@H](CO)NC(C)=O [N-AS, N-((2S,3R,E)-1,3-Dihydroxyoctadec-4-en-2-yl)acetamide]",,7.5498 and 5.551 and 5.112 and 5.2638 and 4.818 and 7.514,27.3068 and 32.6682 and 21.5669 and 18.8144 and 22.2826 and 28.6878
